US20070116781A1, “Hydrogen Cyanamide Pesticide Formulations” (priority 2005, published 2007)

Key:
Hutcheson soybean = test: Crop (soybean) conditions after soil treatment; type: in vivo; settings: 57 d after treatment; for Number of Plants/Pot: 5 seeds/pot
Protocol: In this study, the soil was naturally infested with four species of nematodes, two of which were deleterious and two beneficial, and observations were made of both the nematode survival and the growth of the soybean plants. Stock solutions of hydrogen cyanamide at 1.0% by weight and propionic acid at 5.0% by weight, both in water, were prepared, the hydrogen cyanamide from a phosphate-buffered 50% aqueous solution. Planting pots measuring 10 cm in diameter, each containing 1 kg of soil, were used. […] The resulting plants were then removed from the pots, the root systems were washed, and the number of plants in each pot was determined. The weights of both fresh shoots and roots were also determined as well as the shoot height and the relative health of the root system, using a subjective index. Soil samples were also collected, and the soil and roots were incubated to determine nematode populations. Treatments were arranged in randomized complete block design with seven replications per treatment, and statistical evaluation of the data was performed with analyses of variance (ANOVA) and standard regression procedures. Fischer's Least Significant Difference at p 0.05 was calculated when appropriate. The results of these tests are listed as final test results in Tables II, III, and IV, with nematode populations in the soil listed in Table II, the nematode populations in the root systems in Table III, and the plant and root parameters of the soybean shoots in Table IV.

crabgrass = test: Herbicidal activity, phosphate-free cyanamide and propionic acid, post-emergence, uncovered pots; type: in vivo, Digitaria sanguinalis
Excerpt: The procedures in this example differed from those of Example 2, however, by the use of hydrogen cyanamide crystals free of phosphate ion to prepare the aqueous hydrogen cyanamide solution, by the use of post-emergence application, and by the omission of any covering of the pots during any part of the test. Observations were made for total weed growth, and individual observations were also made for yellow nutsedge, crabgrass, sicklepod, and momingglory. Stock solutions of hydrogen cyanamide at 1.25% by weight and propionic acid at 5.0% by weight, both in water, were prepared as before, except that the hydrogen cyanamide solution, as noted above, was prepared by dissolving hydrogen cyanamide crystals in water in the absence of phosphate ion. […] The weeds were allowed to grow for three weeks before the treatment chemicals were applied. […] Data analyses were performed in the same manner as Examples 1 and 2. Table IX lists the results in weeds per pot for all weeds, Table X for yellow nutsedge, Table XI for crabgrass, Table XII for sicklepod, and Table XIII for morningglory, all both with propionic acid alone at various application […]

reniform nematodes = test: Nematicidal activity in covered pots of naturally infested silt loam, soybean planted after 12 days; type: in vivo, Rotylenchulus reniformus
Protocol: In this study, the soil was naturally infested with four species of nematodes, two of which were deleterious and two beneficial, and observations were made of both the nematode survival and the growth of the soybean plants.
Stock solutions of hydrogen cyanamide at 1.0% by weight and propionic acid at 5.0% by weight, both in water, were prepared, the hydrogen cyanamide from a phosphate-buffered 50% aqueous solution. Planting pots measuring 10 cm in diameter, each containing 1 kg of soil, were used. The soil was silt loam from a cotton field, pH 6.2, CEC<10 meq/100 g soil, organic matter<1.0%. The treatment chemicals were combined in various dilutions such that 100 mL of the combined dilutions contained the desired amount of each chemical for each test. The combined dilutions were then applied to the soil surface in each pot, at 100 mL of combined dilution per pot. The dilutions were selected to achieve target application rates expressed in milligrams of the treatment chemical per kilogram of soil, with 1 milligram of treatment chemical per kilogram of soil being approximately equal to 2 kilograms of the chemical per hectare of soil or 2 pounds of the chemical per acre of soil.
Immediately after the treatment chemicals were applied, each pot was covered by a thick (1.5 mil), clear, low-density polyethylene bag. After twelve days, the bags were removed and soil samples were taken from each pot for nematological analysis by the salad bowl technique of Rodriguez-Kabana, R., and M. H. Pope, Nematropica, 11: 175-186 (1981). The results of these analyses are listed in Table I as pre-plant test results. The results for the two deleterious nematodes are also shown as plots of the number of nematodes vs. the hydrogen cyanamide application rate in FIGS. 1 and 2.
After the polyethylene bags were removed, each pot was planted with Hutcheson soybean seeds at 5 seeds per pot, and the seeds were allowed to germinate and the plants to grow for 45 days. The resulting plants were then removed from the pots, the root systems were washed, and the number of plants in each pot was determined. The weights of both fresh shoots and roots were also determined as well as the shoot height and the relative health of the root system, using a subjective index. Soil samples were also collected, and the soil and roots were incubated to determine nematode populations. Treatments were arranged in randomized complete block design with seven replications per treatment, and statistical evaluation of the data was performed with analyses of variance (ANOVA) and standard regression procedures. Fischer's Least Significant Difference at p 0.05 was calculated when appropriate. The results of these tests are listed as final test results in Tables II, III, and IV, with nematode populations in the soil listed in Table II, the nematode populations in the root systems in Table III, and the plant and root parameters of the soybean shoots in Table IV.

SMILES: CCC(=O)O [C2H5CO2H, propionic acid]
- Number of Plants/Pot (Hutcheson soybean; C2H5CO2H 250 mg/kg soil): 3.7
- Fresh Shoot Weight (Hutcheson soybean; C2H5CO2H 250 mg/kg soil): 19.6 g
- Root Condition Index (Hutcheson soybean; C2H5CO2H 250 mg/kg soil): 2.1
- Shoot Height (Hutcheson soybean; C2H5CO2H 250 mg/kg soil): 26.9 cm
- Weeds Per Pot: Crabgrass (crabgrass; 6 d after treatment, C2H5CO2H 100 mg/kg soil): 9.9
- Weeds Per Pot: Crabgrass (crabgrass; 6 d after treatment, C2H5CO2H 200 mg/kg soil): 5.1
- Weeds Per Pot: Crabgrass (crabgrass; 6 d after treatment, C2H5CO2H 300 mg/kg soil): 3
- Weeds Per Pot: Crabgrass (crabgrass; 6 d after treatment, C2H5CO2H 400 mg/kg soil): 0.6
- Weeds Per Pot: Crabgrass (crabgrass; 6 d after treatment, C2H5CO2H 500 mg/kg soil): 0.6
- Weeds Per Pot: Crabgrass (crabgrass; 13 d after treatment, C2H5CO2H 100 mg/kg soil): 10.6
- Weeds Per Pot: Crabgrass (crabgrass; 13 d after treatment, C2H5CO2H 200 mg/kg soil): 5.4
- Weeds Per Pot: Crabgrass (crabgrass; 13 d after treatment, C2H5CO2H 300 mg/kg soil): 3.9
- Weeds Per Pot: Crabgrass (crabgrass; 13 d after treatment, C2H5CO2H 400 mg/kg soil): 1.3
- Weeds Per Pot: Crabgrass (crabgrass; 13 d after treatment, C2H5CO2H 500 mg/kg soil): 0.7
- Weeds Per Pot: Crabgrass (crabgrass; 20 d after treatment, C2H5CO2H 100 mg/kg soil): 11.6
- Weeds Per Pot: Crabgrass (crabgrass; 20 d after treatment, C2H5CO2H 200 mg/kg soil): 6
- Weeds Per Pot: Crabgrass (crabgrass; 20 d after treatment, C2H5CO2H 300 mg/kg soil): 3.4
- Weeds Per Pot: Crabgrass (crabgrass; 20 d after treatment, C2H5CO2H 400 mg/kg soil): 1.3
- Weeds Per Pot: Crabgrass (crabgrass; 20 d after treatment, C2H5CO2H 500 mg/kg soil): 1.6
- Surviving Nematodes: Reniform (reniform nematodes; 12 d after treatment, pre-plant, C2H5CO2H 250 mg/kg soil): 280 per 100 mL of soil
- Surviving Nematodes: Reniform (reniform nematodes; 57 d after treatment, 45 d after planting, C2H5CO2H 250 mg/kg soil): 328 per 100 mL of soil
- Surviving Nematodes in Root System: Reniform (reniform nematodes; 57 d after treatment, C2H5CO2H 250 mg/kg soil): 64.7 Per Pot

SMILES: N#CN [Cyanamide, hydrogen cyanamide]
- Number of Plants/Pot (Hutcheson soybean; cyanamide 20 mg/kg soil): 4
- Number of Plants/Pot (Hutcheson soybean; cyanamide 40 mg/kg soil): 3.9
- Number of Plants/Pot (Hutcheson soybean; cyanamide 60 mg/kg soil): 4.7
- Number of Plants/Pot (Hutcheson soybean; cyanamide 80 mg/kg soil): 4.4
- Number of Plants/Pot (Hutcheson soybean; cyanamide 120 mg/kg soil): 4.9
- Fresh Shoot Weight (Hutcheson soybean; cyanamide 20 mg/kg soil): 21.7 g
- Root Condition Index (Hutcheson soybean; cyanamide 20 mg/kg soil): 1.6
- Shoot Height (Hutcheson soybean; cyanamide 20 mg/kg soil): 26.4 cm
- Fresh Shoot Weight (Hutcheson soybean; cyanamide 40 mg/kg soil): 20.5 g
- Root Condition Index (Hutcheson soybean; cyanamide 40 mg/kg soil): 1.4
- Shoot Height (Hutcheson soybean; cyanamide 40 mg/kg soil): 26.5 cm
- Fresh Shoot Weight (Hutcheson soybean; cyanamide 60 mg/kg soil): 25.5 g
- Root Condition Index (Hutcheson soybean; cyanamide 60 mg/kg soil): 1.1
- Shoot Height (Hutcheson soybean; cyanamide 60 mg/kg soil): 27 cm
- Fresh Shoot Weight (Hutcheson soybean; cyanamide 80 mg/kg soil): 24.95 g
- Root Condition Index (Hutcheson soybean; cyanamide 80 mg/kg soil): 1.1
- Shoot Height (Hutcheson soybean; cyanamide 80 mg/kg soil): 27.1 cm
- Fresh Shoot Weight (Hutcheson soybean; cyanamide 120 mg/kg soil): 29.4 g
- Root Condition Index (Hutcheson soybean; cyanamide 120 mg/kg soil): 1.3
- Shoot Height (Hutcheson soybean; cyanamide 120 mg/kg soil): 28.7 cm
- Weeds Per Pot: Crabgrass (crabgrass; 6 d after treatment, cyanamide 150 mg/kg soil): 0
- Weeds Per Pot: Crabgrass (crabgrass; 13 d after treatment, cyanamide 150 mg/kg soil): 0.4
- Weeds Per Pot: Crabgrass (crabgrass; 20 d after treatment, cyanamide 150 mg/kg soil): 0.3
- Crabgrass weeds per pot (crabgrass; hydrogen cyanamide 125 mg/kg of soil alone, all intervals): about one or fewer crabgrass weeds per pot
- Surviving Nematodes: Reniform (reniform nematodes; 12 d after treatment, pre-plant, cyanamide 20 mg/kg soil): 274 per 100 mL of soil
- Surviving Nematodes: Reniform (reniform nematodes; 12 d after treatment, pre-plant, cyanamide 40 mg/kg soil): 191 per 100 mL of soil
- Surviving Nematodes: Reniform (reniform nematodes; 12 d after treatment, pre-plant, cyanamide 60 mg/kg soil): 102 per 100 mL of soil
- Surviving Nematodes: Reniform (reniform nematodes; 12 d after treatment, pre-plant, cyanamide 80 mg/kg soil): 120 per 100 mL of soil
- Surviving Nematodes: Reniform (reniform nematodes; 12 d after treatment, pre-plant, cyanamide 120 mg/kg soil): 16 per 100 mL of soil
- Surviving Nematodes: Reniform (reniform nematodes; 57 d after treatment, 45 d after planting, cyanamide 20 mg/kg soil): 240 per 100 mL of soil
- Surviving Nematodes: Reniform (reniform nematodes; 57 d after treatment, 45 d after planting, cyanamide 40 mg/kg soil): 190 per 100 mL of soil
- Surviving Nematodes: Reniform (reniform nematodes; 57 d after treatment, 45 d after planting, cyanamide 60 mg/kg soil): 167 per 100 mL of soil
- Surviving Nematodes: Reniform (reniform nematodes; 57 d after treatment, 45 d after planting, cyanamide 80 mg/kg soil): 354 per 100 mL of soil
- Surviving Nematodes: Reniform (reniform nematodes; 57 d after treatment, 45 d after planting, cyanamide 120 mg/kg soil): 95 per 100 mL of soil
- Surviving Nematodes in Root System: Reniform (reniform nematodes; 57 d after treatment, cyanamide 20 mg/kg soil): 25.7 Per Pot
- Surviving Nematodes in Root System: Reniform (reniform nematodes; 57 d after treatment, cyanamide 40 mg/kg soil): 9.6 Per Pot
- Surviving Nematodes in Root System: Reniform (reniform nematodes; 57 d after treatment, cyanamide 60 mg/kg soil): 13.4 Per Pot
- Surviving Nematodes in Root System: Reniform (reniform nematodes; 57 d after treatment, cyanamide 80 mg/kg soil): 19.4 Per Pot
- Surviving Nematodes in Root System: Reniform (reniform nematodes; 57 d after treatment, cyanamide 120 mg/kg soil): 4.3 Per Pot
